Results reported in patent publication US7892780B2, “Method for screening antioxidant using mutant bacteria and chlorophyllide, and antioxidant screened by the method” (Industry-University Cooperation Foundation Sogang University, priority 2007, dated 2011).

Test system: Rhodobacter sphaeroides 2.4.1 SodB1 [KCTC 11069BP]
Assay: Antioxidant screening by growth of SodB1 mutant bacteria on chlorophyllide-added medium blocks or filter discs
Assay type: cell-based
Details: sample dissolved in ethanol or dimethylsulfoxide, FIG. 5
Description: Next, an antioxidant sample and SodB1 mutant bacteria were added to these medium blocks, or otherwise chlorophyllide (0.1 to 100 mM) was added directly to filter discs to which a desired concentration of an antioxidant candidate material was then added. Thereafter, multimeric protein-expressing SodB1 mutant bacteria, i.e. Rhodobacter sphaeroides 2.4.1 SodB1 [KCTC 11069BP], were plated on a Sistrom's minimal medium [20 mM potassium dihydrogen phosphate (KH2PO4), 3.8 mM ammonium sulfate ((NH4)2SO4), 34 mM succinic acid, 0.59 mM L-glutamic acid, 0.30 mM L-aspartic acid, 8.5 mM sodium chloride, 1.05 mM nitrilotriacetic acid, 1.2 mM magnesium chloride (MgCl2.6H2O), 0.23 mM calcium chloride (CaCl2.7H2O), 25 μM ferrous sulfate (FeSO4.7H2O), 0.16 μM ammonium molybdate ((NH4)6Mo7O24.4H2O), 4.7 μM EDTA, 38 μM zinc sulfate (ZnSO4.7H2O), 9.1 μM manganese sulfate (MnSO4.H2O), 1.6 μM copper sulfate (CuSO4.5H2O), 0.85 μM cobalt (II) nitrate (Co(NO3)2.6H2O), 1.8 μM boric acid (H3BO3), 8.1 μM nicotinic acid, 1.5 μM thiamine hydrochloride, and 41 nM biotin] (Sistrom, W. R, 1962. J. Gen. Microbiol. 28: 607-616).
As a result, when there was an antioxidant activity in the antioxidant candidate material to be screened, cells grew only on the medium blocks or around filter discs and thus red bacteria were observed. […]

Compound	cell growth of SodB1 mutant bacteria / prevention of cell death (antioxidant activity)
O=c1c(O)c(-c2ccc(O)c(O)c2)oc2cc(O)cc(O)c12 [quercetin]	partial cell growth
tocopherol	partial cell growth
